Measured values reported in patent publication US20250295610A1, “NEUROPROTECTIVE AGENTS FOR USE IN THE TREATMENT OF OPTIC NEUROPATHIES” (The Board of Trustees of the Leland Stanford Junior …, priority 2021, published 2025).
Entries after “also recorded” stand apart in the source; their conditions may differ.

Experiments:
[1] = system: CHOP promoter-driven luciferase (CHOP-Luc) in HEK293T cells; test: CHOP-Luc reporter cell-based assay (HTS and retest); design: species or system human; conditions: Tm/Tg 1 μM; for CHOP-luciferase activity: compound at 20 μM, 24 hours (FIG. 9e); for CHOP-luciferase activity induced by ER stress (Tm/Tg): compound at 10 µM, relative to DMSO (FIG. 1d)
Protocol: ER stress reporter cell lines.
Cell-based HTS. The HTS to identify CHOP expression inhibitors was performed at the Stanford High-Throughput Bioscience Center with small molecule libraries containing 4846 total known bioactive, FDA approved drugs and clinical trial compounds; libraries included Biomol FDA, Biomol ICCB, Microsource (MS) Spectrum, Sigma LOPAC, and NIH Clinical Collection (NIH-CC). All the compounds were run in 7-point dose response based on a previous publication; except the NIH Clinical collection (446 compounds) which were tested in duplicate due to the small quantity of compounds on hand. Most of the NIH-CC was screened at 10 µM, but this varied per compound. […] We used the Pin Tool to transfer 100 nL of the compounds into 50 μL final volume. Therefore, we did a 500-fold dilution of the stock plates, which were at 10, 5, 2.5, 1.25, 0.625, 0.3125, and 0.156 mM resulting in final concentrations of 20, 10, 5, 2.5, 1.25, 0.625, and 0.3125 µM (for most of the compounds but not all). The final DMSO concentration was 0.2% for all wells. Briefly, CHOP-Luc cells were seeded in 384-well plates (Greiner Bio-One […]) at a density of 2×10^5 cells per well in 40 μL medium and cultured for 24 hours before treatment with tunicamycin (Tm)+thapsigargin (Tg) at 1 μM in 10 μL medium followed by adding 100 nL of one of the testing compounds using a Staccato SciClone ALH3000 small molecule liquid handling system (Caliper Life Sciences) and V&P Scientific 384 pin tools. AeraSeal sterile adhesive microplate seals (Excel Scientific; Victorville, CA) were used to seal plates that were incubated at 5% CO2, 37° C. for 24 hours, when luciferase activity was assayed by adding 10 μL of Bright™-Glo Luciferase reagent (Promega) to each well and detected by a Tecan Infinite M1000 Pro plate reader. Percentage of CHOP-Luc inhibition=100%−(Compound value−DMSO control value)/(Tm/Tg value−DMSO control value)×100%. The compounds achieving >30% of CHOP-Luc inhibition were considered as “hits”. Luciferase activity of all the tested compounds was determined by meta-analysis of luciferase activity in different cell lines under the control of a generic or other promoters. Any compound that appeared in more than 3 non-related luciferase screens was likely a toxic compound or luciferase inhibitor and therefore eliminated. There was no true cutoff, other than an IC50<20 µM (or the highest concentration tested).

[2] = system: ONC-induced ER stress in RGCs; test: ER stress molecules in RGCs and ONs after ON crush (ONC); conditions: mouse, after traumatic ON injury, in vivo application
Protocol: Protein Preparation and Immunoblotting. Cell and tissue lysates were prepared in RIPA buffer (Themo Fisher Scientific, 89901) and supplemented with Halt Protease inhibitor cocktail (Themo Fisher Scientific, PI78437). The total protein concentration of lysates was measured by the Pierce BCA Protein Assay Kit (Thermo Fisher Scientific, 23227). 20 μg protein of each sample were denatured at 95° C. for 15 min in 100 mM DTT+1× Laemmli buffer before being separated by SDS-PAGE. We then transferred the protein samples to 0.2 μm nitrocellulose membranes (Bio-Rad, 1610097) and blocked with 5% BSA for 2 hours. Subsequently, the membranes were incubated with primary antibodies (1:1000) overnight at 4° C. After washing in TBST, these membranes were incubated with horseradish peroxidase-conjugated secondary antibodies (Cell Signaling, 7074S and 7076S, 1:1000) and visualized using a GE-A1600 imaging system. Images were quantified with ImageJ software. The primary antibodies used were PERK (Cell Signaling, 3192S), p-PERK (Cell Signaling, 3179S), eIF2a (Cell Signaling, 5324S), p-eIF2a (Cell Signaling, 3597L), ATF4 (Cell Signaling, 11815S), CHOP (Cell Signaling, 2895S), ATF6 (Cell Signaling, 65880T), IRE1a (Cell Signaling, 3294T), IRE1 (phosphor-S724) (Thermo Fisher, PA116927), phospho-SAPK/JNK (Thr183/Tyr185) (Cell Signaling, 9251S), phospho-p38 MAPK (Thr180/Tyr182) (Cell Signaling, 9215S), β-Actin (sigma, A5441), XBP-1s (Biolegend, 647502), XBP-1 (Santa Cruz, sc-8501), anti-RBPMS (Custom made at ProSci Inc).
ON crush model. The ON was exposed intraorbitally while care was taken not to damage the underlying ophthalmic artery, and crushed with a jeweler's forceps (Dumont #5; Fine Science Tools, Foster City, California) for 5 seconds approximately 0.5 mm behind the eyeball. Eye ointment containing neomycin (Akorn, Somerset, New Jersey) was applied to protect the cornea after surgery. For compound treatment, each eye received intravitreal injection with 2 μl of 2 mM test compounds once and intraperitoneal (i.p.) injection daily (15 mg/kg) for 14 days after ONC. […]

[3] = system: XBP-1-Luc HEK293T reporter cell line (IRE1α activity and XBP-1 splicing); conditions: Tm/Tg 1 μM, 24 hours
[4] = mouse, 6 and 24 hours after injection
Protocol: Retinal tissues were homogenized with 100 μL of pre-chilled 20% acetonitrile and then diluted 2-fold with blank mouse plasma. An aliquot of 20 μL of diluted retina homogenate was extracted with 100 μL of methanol: acetonitrile (5:95, v: v) containing the internal standard (Verapamil). The mixture was shaken on a shaker for 15 minutes and then centrifuged at 3220 g for 15 minutes. An aliquot of 70 μL of the supernatant was mixed with 70 μL of water for the injection to the LC-MS. Calibration standards and quality control samples were prepared by spiking 2 μL of the test compound into 18 μL of blank mouse plasma, and the resulting plasma was processed with the unknown samples in the same batch. The extracts were analyzed by a Shimadzu LC-30AD interfaced to a Sciex API 5000 system. The extracts were injected onto an ACE 3 C18 column (50×2.1 mm, 3.0 μm) and separated by the gradient elution using water with 10 mM ammonium acetate (A) and acetonitrile with 0.1% formic acid (B) as mobile phases. The gradient program started at 10% B, held for 0.2 min, ramped to 95% B at 1.5 min, remained at 95% at 2.4 min, dropped to 10% B at 2.45 min, and stayed at 10% B till 3.2 min. […] The calibration curve fitted by linear regression was used to quantify the analytes in the matrix using Analyst software 1.6.2 (Sciex).

HEK293T cells = HEK293T cells expressing jGCaMP7s, Tm/Tg 1 μM
Protocol: HEK293T cells were seeded at 10% confluence the day before transfection in poly-D-lysin-coated glass bottom 35 mm dishes (MatTek, P35GC1.510C). Two hours prior to transfection, media was removed and 1 mL of FBS-free DMEM media was added to each well. We then mixed 2 μg of the jGCaMP7s plasmid in 100 μl DMEM. In a separate tube, we diluted 4 μl PolyJet™ (SignaGen Laboratories, SL100688) reagent in 100 μl with DMEM, and incubate for 10 minutes. The complete mixture of DNA and PolyJet was incubated for another 15 min before being added to the HEK293T cells. Six hours later, the media was changed to 1 ml/well culture media. The next day, cytosolic Ca^2 + was imaged in cells transiently transfected with jGCaMP7s through a Zeiss LSM 800 confocal microscope. Dynamic intracellular Ca^2 + influx in response to Tm/Tg-induced ER stress was measured every 10 seconds for 100 seconds before Tm/Tg treatment to acquire baseline fluorescence (F0) and for 400 seconds after Tm/Tg administration to acquire F1. ΔF=F1−F0. Data were analyzed with ImageJ.

[5] = system: naïve mouse retinas and ON; conditions: one month after systemic administration
Protocol: Immunohistochemistry of whole mount and cross sections of retina. After perfusion fixation with 4% PFA in PBS, mice eyeballs and ONs were dissected out and post-fixed with 4% PFA for 2 hours at room temperature. Retinas were dissected out for whole mount retina immunostaining. For cryo-section with Leica cryostat, the eyeballs and ONs were embedded in tissue-tek OCT (Sakura) on dry ice for subsequent cryo-section. The sections were blocked with 10% goat serum (Sigma, G9023) for 2 hours before incubating with primary antibodies: RBPMS 1:4000, others 1:200 overnight at 4° C. […]
RGC counting. Whole-mount retinas were immunostained with the RBPMS antibody, 6-8 fields randomly sampled from peripheral regions of each retina using a 40× lens with a Zeiss M2 epifluorescence microscope, and RBPMS+RGCs counted by Volocity software (Quorum Technologies). The percentage of RGC survival was calculated as the ratio of surviving RGC numbers in injured eyes compared to contralateral uninjured eyes. The investigators who counted the cells were masked to the treatment of the samples.
ON semi-thin sections and quantification of surviving axons. […] Two areas of 21.4 μm×29.1 μm were cropped from the center of each image, and the surviving axons within the designated areas counted manually using ImageJ. […]

RGCs expressing jGCaMP7s = conditions: living mice, SLO, early and later time points after ONC
Protocol: In vivo RGC Ca^2 + imaging with SLO. The mice were intravitreally injected with AAV2-mSncg-jGCaMP7s (9×10^9 vg/retina) 4 weeks before imaging. The mice were anesthetized by xylazine and ketamine after dark adaptation for 30 minutes. Mydriasis was achieved by applying a drop of 1% tropicamide solution and a drop of 2.5% phenylephrine hydrochloride solution, which prevents pupillary contraction during recording. Right after ON crush, the mice were placed on a 3D-printed mouse holder with a 37° C. heater, and a custom-made+10D mouse contact lens (3.0 mm diameter, 1.6 mm BC, PMMA clear, Advanced Vision Technologies) attached to keep the cornea from drying. The retinal fundus was imaged by the Heidelberg Spectralis SLO/OCT system (Heidelberg Engineering, Germany) with a 55° lens using the fluorescein angiography scanning mode under the same sensitivity (sensitivity 75-85) and high-resolution (1536×1536 pixels).

[6] = system: RGC somata and axons, mouse ONC model; test: Neuroprotection in traumatic ON crush (ONC) model; format: in vivo; conditions: for neuroprotection of RGCs and ONs: mouse ONC model, traumatic ON injury; for GCC thickness by OCT: mouse ONC, intravitreal 2 μl of 2 mM once + i.p. 15 mg/kg daily, vs DMSO
Protocol: ON crush model. The ON was exposed intraorbitally while care was taken not to damage the underlying ophthalmic artery, and crushed with a jeweler's forceps (Dumont #5; Fine Science Tools, Foster City, California) for 5 seconds approximately 0.5 mm behind the eyeball. Eye ointment containing neomycin (Akorn, Somerset, New Jersey) was applied to protect the cornea after surgery. For compound treatment, each eye received intravitreal injection with 2 μl of 2 mM test compounds once and intraperitoneal (i.p.) injection daily (15 mg/kg) for 14 days after ONC.

RGCs expressing D4ER = conditions: mouse retina explants after ONC
Protocol: Ex vivo ER Ca^2 + imaging in retina explants. ER calcium levels were measured using the Forster resonance energy transfer (FRET)-based ER targeted calcium sensor, D4ER. […] For imaging, retinas were dissected out at 3, 7 or 14dpc and plated onto laminin (Sigma, L2020) and poly-D-lysin-coated glass bottom dishes (MatTek, P35GC1.510C) and maintained in Neurobasal-A medium (ThermoFisher Scientific, 10888022) supplemented with L-glutamine (Gibco, 25030-081), penicillin/streptomycin (Gibco, 15140122) and B-27 (ThermoFisher Scientific, 0080085SA). Retina explants were imaged using a Zeiss LSM 800 microscope. ER [Ca^2 +] levels were determined by exciting D4ER at 440 nm to record the emitted light at 465-485 nm and 530-550 nm, and analyzed with ImageJ.

[7] = system: visual function, mouse SOHU glaucoma model; test: Visual function (PERG, OKR) in SOHU glaucoma model; format: in vivo; conditions: 3wpi, vs DMSO
Protocol: Control groups received the same volume of DMSO as vehicle control.
Pattern Electroretinogram (PERG) recording. After anesthetization and pupil dilation, PERG of both eyes was recorded simultaneously with the Miami PERG system (Intelligent Hearing Systems, Miami, Florida) according to manufacturer's instructions. Two consecutive recordings of 200 traces were averaged to achieve one readout; each trace recorded up to 1020 ms. The first positive peak in the waveform was designated as P1 and the second negative peak as N2. The amplitude was measured from P1 to N2.
Optokinetic Tracking Response (OKR). Mice were placed on a platform in the center of four 17-inch LCD computer monitors (Dell, Phoenix, AZ), with a video camera above the platform to capture the movement of the mouse. A rotating cylinder with vertical sine wave grating was computed and projected to the four monitors by OptoMotry software (Cere-bralMechanics Inc, Lethbridge, Alberta, Canada). […] The maximum frequency (cycle/degree) that the mouse could track was identified and recorded by investigators masked to treatment. The relative percentages of visual acuity were calculated as the ratio of maximum frequency in disease eye compared to contralateral control eye.

[8] = system: three UPR pathways induced by ER stress (Tm/Tg) in HEK293T cells; test: UPR signaling cascades in HEK293T cells (immunoblot, RT-PCR, qPCR); format: cell-based, human; conditions: Tm/Tg 1 μM; for UPR pathways induced by ER stress: HEK293T cells, compound 10 μM; for XBP-1 mRNA splicing: RT-PCR
[9] = system: CHO luciferase reporter cell line driven by murine CHOP promoter; conditions: different CHO luciferase reporter cell line; cited from earlier work
[10] = HEK293T, immunoblot, 10 μM, 24 hours

SMILES | CHOP-luciferase activity [1] | RGC ER stress [2] | neuroprotection of RGCs and ONs [6] | GCC thickness by OCT ([6]; 14dpc) | UPR pathways induced by ER stress [8] | CHOP-luciferase activity induced by ER stress (Tm/Tg) ([1]; 24 hours) | also measured
CN(C)CCC=C1c2ccccc2CCc2ccccc21 [amitriptyline] | inhibited |  |  |  |  |  | 
CNCCCC12CCC(c3ccccc31)c1ccccc12 [maprotiline] |  | effectively inhibits | significantly protects | significantly thicker | inhibit all three UPR pathways | significantly inhibited | XBP-1 splicing induced by Tm/Tg (XBP-1s-Luc) [3]: dose-dependent inhibition; maprotiline in the retina after i.p. injection (LC-MS) [4]: presence of maprotiline in the retina; Tm/Tg-induced intracellular Ca2+ influx (HEK293T cells): significantly blocked; RGC or ON degeneration [5]: no RGC or ON degeneration; immune cell infiltration in retina and ON [5]: no immune cell infiltration; intra-RGC Ca2+ levels after ONC (RGCs expressing jGCaMP7s): significantly decreased; ER Ca2+ concentration of RGCs after ONC (D4ER FRET) (RGCs expressing D4ER): maintained ER Ca^2 + concentration at much higher levels; amplitude of PERG [7]: improved; visual acuity (OKR) [7]: improved; downstream genes of UPR at the mRNA levels (qPCR) ([8]; HEK293T, 12 hours, 10 µM): the most striking modulation; XBP-1 mRNA splicing ([8]; HEK293T, 10 μM, 24 hours): significantly inhibited; IRE1α phosphorylation [8, 10]: inhibited; JNK phosphorylation [8, 10]: significantly inhibited
CN1CCN(CCCN2c3ccccc3Sc3ccc(C(F)(F)F)cc32)CC1 [trifluoperazine] | inhibited |  |  |  |  |  | CHOP inhibitor in a previous study [9]: CHOP inhibitor
COc1ccc2c(c1)CC[C@@H]1[C@@H]2CC[C@]2(C)[C@@H](NCCCCCCN3C(=O)C=CC3=O)CC[C@@H]12 [U-73122] |  |  |  |  |  |  | protection of RGC axons ([6]; mouse, after ONC injury, 14dpc): protected; protection of RGC somata ([6]; mouse, after ONC injury, 14dpc): protected
CNCCCN1c2ccccc2CCc2ccccc21 [desipramine] | inhibited |  |  |  |  |  | 
Cn1cc(-c2ccc3c(c2)CCN3C(=O)Cc2cccc(C(F)(F)F)c2)c2c(N)ncnc21 [GSK2606414] |  |  |  |  |  |  | CHOP-luciferase activity induced by Tm/Tg, reference compounds ([1]; FIG. 1d and FIG. 9e (10 µM and 20 μM), 24 hours): significantly inhibited
Clc1ccc2c(c1)CCc1cccnc1C2=C1CCNCC1 [desloratadine] |  | effectively inhibits | significantly protects | significantly thicker | inhibit all three UPR pathways |  | JNK phosphorylation [8, 10]: significantly inhibited
Clc1ccc2c(c1)C(N1CCNCC1)=Nc1ccccc1O2 [amoxapine] |  | effectively inhibits | significantly protects | significantly thicker | inhibit all three UPR pathways | significantly inhibited | XBP-1 mRNA splicing ([8]; HEK293T, 10 μM, 24 hours): significantly inhibited
CN(C)CCCN1c2ccccc2CCc2ccc(Cl)cc21 [clomipramine] | inhibited |  |  |  |  |  | 
O=C(COc1ccc(Cl)cc1)NC1CCC(NC(=O)COc2ccc(Cl)cc2)CC1 (stereo not drawn) [ISRIB] |  |  | provided neuroprotection in the ONC mouse model, to a lesser degree than maprotiline; also recorded: significant neuroprotection |  |  | no effect; also recorded: did not have a significant inhibition effect | 
